SMILES strings stand for the structures.

This is an account of results in patent US11246816B2, “Shampoo compositions comprising a chelant” (The Procter & Gamble Company, priority 2016, dated 2022).

Data set [1] can be described thus: Log P, n-octanol/water partition coefficient. The data set is classed as physicochemical. The source says: The term log P is the n-octanol/water partition coefficients of the material.
The copper to be removed is inside the hair and the chelant needs to penetrate inside hair and form a strong copper-chelant complex. This copper-chelant complex needs to be water soluble and thus easily removed during the rinsing process. […] These are log P, the octanol/water partitioning coefficient, and the molecular weight of the chelant. Both are related to the ability of the chelant to penetrate into hair and also form a water soluble copper-chelant complex

The nature of data set [2]: Copper content of colored hair switches after repeated shampoo wash cycles (ICP-OES). The note with it: clarifying shampoo containing the chelant, 20 cycles, copper content of hair compared to same treatment with shampoo without chelant. The protocol: The copper removing performance of the shampoo composition is determined by treating hair with clarifying shampoo containing the corresponding chelant for 20 cycles and comparing the copper content of the hair compared to the same treatment using shampoo without the chelant.
All testing are performed on colored hair switches (see Method of Measurement of Copper on Hair below) weighing approximately 4.0 grams and having a length of approximately 6 inches. The hair switches are commercially available from IHIP (International Hair Importers). Three hair switches per shampoo composition are used. An amount of […] of shampoo is spread via a syringe onto separate hair switch. That is, the dosage is 0.10 g of shampoo per g of hair. Each application consists of adding shampoo to the hair, milking for 30 seconds followed by rinsing for 30 seconds. Shampoo is then reapplied (0.1 g/g), milked for 30 seconds and rinsed for 30 seconds. Excess water is squeezed from the hair switches and left to air dry or treated with a rinse-off conditioner and/or a leave-on treatment composition. This protocol is repeated for a number of times/cycles (as indicated in the tables below, which describe the details of hair treatments).
The following test method is used to assess the ability of the compositions and regimens to remove copper from the hair and to inhibit copper deposition onto the hair.
Hair switches are colored once with an oxidative hair colorant. An extra blonde shade is used for the testing. The hair switches are washed for 10 or 20 repeat wash cycles in tap water containing 7 grains per gallon water hardness (Ca/Mg) and 0.06 μg/g copper ions. Each wash cycle consists of two applications of 0.1 g/g a shampoo to the hair switches. Each application consists of adding shampoo to the hair, milking for 30 secs followed by rinsing for 30 secs. Shampoo is then reapplied 0.1 g/g, milked for 30 secs, rinsed for 30 secs and then dried in a heat box (60° C.) until dry.
Samples of 100 mg of hair are digested overnight with 2 ml of high purity concentrated nitric acid. The digestive mixture also contains 150 μL of 100 μg/g Yttrium internal standard (Inorganic Ventures, Christianburg, Va., USA). Following digestion, samples are heated to 70-80° C. for one hour, cooled to room temperature and diluted to 15 mL with deionized water. Copper content of the hair switches is determined by inductively coupled plasma atomic spectroscopy (ICP-OES)). For each leg, 3 different samples are analyzed.
In order to minimize the variability of the resulting copper content on hair that is related to (a) lot-to-lot viariability due to hair switches and (b) day-to-day variability of the water used during shampoo and conditioner treatments, a single lot of hair switches is used for each experimental series and a separate control experiment/treatment is run for each experimental series (see below).

For data set [3] the following is noted: log of formation constant of complex with copper; cited from earlier work.

In general, logP refers to a log measure of how a compound divides between an organic and an aqueous phase. Low readings indicate lower lipophilicity, high ones higher lipophilicity. In turn, `CCCCc1ccc(C(=O)O)nc1` [Fusaric Acid, fusaric acid] had a logP in data set [1] of 2.6.
As to `O=C(O)c1cccnc1C(=O)O` [Quinolinic Acid, quinolinic acid], the “Copper Removing Performance from Shampoo” value in data set [2] is listed as 50%. This molecule had a log partition coefficient (logP) in data set [1] of 0.4.
As to `Nc1cc(C(=O)O)nc(C(=O)O)c1` [4-Aminopyridine-2,6-dicarboxylic acid, 4-aminopyridine-2,6-dicarboxylic acid], in data set [1], the logP was 0. In data set [3], the “Log KML Cu” value was 11.4.
As for `O=C(O)c1cccc(C(=O)O)n1` [Dipicolinic Acid, dipicolinic acid], in data set [2], the “Copper Removing Performance from Shampoo” value is reported as 40%. This molecule also gave a logP in data set [1] of 0.8. In data set [3], the “Log KML Cu” value is on record as 9.1.
Regarding `O=C(O)c1ccc2ccccc2n1` [Quinaldic Acid, quinaldic acid], the “Copper Removing Performance from Shampoo” value in data set [2] amounted to 35%. In data set [1], this molecule showed a logP of 2.1. Further, the “Log KML Cu” value in data set [3] was 5.9.
As for `Cc1cccc(C(=O)O)n1` [6-Methyl Picolinic Acid, 6-methylpyridine-2-carboxylic acid], the “Copper Removing Performance from Shampoo” value in data set [2] turned out to be 35%. The logP in data set [1] was found to be 1. Further, the “Log KML Cu” value in data set [3] is recorded as 7.1.
`O=C(O)c1cc(O)cc(C(=O)O)n1` [Chelidamic Acid, chelidamic acid]: in data set [2], the “Copper Removing Performance from Shampoo” value turned out to be 35%. In data set [1], this molecule returned a logP of 0.6. For the same molecule, the “Log KML Cu” value in data set [3] is 12.2.
`O=C(O)c1ccccn1` [Picolinic Acid, picolinic acid]: the “Copper Removing Performance from Shampoo” value in data set [2] is on record as 50%. Besides, in data set [1], the logP came to 0.7. Also, in data set [3], the “Log KML Cu” value was 7.9.
